Data on 6 compounds can be found in patent publication US20240139196A1, “COMBINATION TREATMENTS IN DIFFICULT TO TREAT PATIENTS WITH ADVANCED AND/OR METASTATIC TROP-2 OVEREXPRESSING CANCERS” (G1 Therapeutics, Inc., priority 2021, published 2024).

Where “and” joins values, the source holds several entries; their conditions need not be identical. Equal values may be shown once. Entries after “also recorded” stand apart in the source; their conditions may differ.

For series [1], the system named is patients with PD-L1 positive locally advanced unresectable/metastatic TNBC. To be noted: cited from earlier work.
Series [2] deals with patients with unresectable locally advanced/metastatic triple-negative breast cancer, PD-L1 positive. Conditions: paclitaxel with vs without atezolizumab, cited from earlier work.
Series [3] concerns patients with unresectable locally advanced or metastatic TNBC who received at least 2 prior treatments. Kind of series: Phase 2 single-arm open-label study of trilaciclib administered prior to sacituzumab govitecan-hziy (NCT05113966). In kind it is in vivo, human. Conditions: for Grade ≥3 TRAEs related to the named study drug / patients with AEs related to the named study drug: combination study, attribution by investigators. Here is the method: Early results from initial human clinical trials (see, e.g., NCT05113966) have shown trilaciclib's ability to drastically reduce side effects associated with sacituzumab govitecan administration, including a reduction in the incidence of severe (Grade 3/4) neutropenia (see, for example, Example 1, FIG. 2A). In the initial studies, 8 female patients (median age 55.0 years) had been enrolled and completed a median 3 (range 1-6) 21-day cycles, wherein sacituzumab govitecan was administered on days 1 and 8 of each 21-day cycle, and trilaciclib was administered over a 30 minute intravenous administration within 4 hours prior to administration of sacituzumab govitecan on days 1 and 8 of each 21-day cycle (see, e.g., FIG. 1). All patients had received a prior taxane and 7 had received a prior immune checkpoint inhibitor (5 atezolizumab, 2 pembrolizumab; 4 in the adjuvant setting, 3 in the metastatic setting). Severe (Grade 3/4) neutropenia occurred in only 1 patient (12.5% with trilaciclib compared with 52% in the ASCENT study). No patients had Grade 3/4 anemia or thrombocytopenia, and none had febrile neutropenia or a serious infection. Granulocyte colony-stimulating factors were administered to 2 patients (25%) and 1 patient required intravenous antibiotics. No patients required red blood cell/platelet transfusions or erythropoiesis-stimulating agents. […] There was only 1 treatment-related adverse event of diarrhea.
FIG. 1 is a schematic of a human clinical trial assessing the safety and efficacy of trilaciclib administered with sacituzumab govitecan-hziy (Trodelvy®) in patients with locally advanced or metastatic TNBC who received at least 2 prior treatments, at least 1 in the metastatic setting. The study will include 3 study phases: Screening Phase, treatment Phase, and Survival Follow-up Phase. The treatment phase consists of 21-day cycles: Trilaciclib will be administered IV prior to sacituzumab govitecan-hziy infusions. Trilaciclib will be administered via IV prior to sacituzumab govitecan-hziy administration at 240 mg/m^2. Sacituzumab govitecan-hziy will be administered via IV at 10 mg/kg. The study will include 3 study phases: Screening Phase, Treatment Phase, and Survival Follow up Phase. The Treatment Phase begins on the day of the first dose of study treatment and completes at the Safety Follow-up Visit. The first Survival Follow-up assessment should occur approximately 3 months after the End of Treatment Visit. DC=discontinuation, PD=Progressive disease, PI=Principal Investigator, WD=Withdraw.
An exploratory Phase 2, multicenter, open-label study evaluating the safety and efficacy of trilaciclib administered with sacituzumab govitecan-hziy in patients with unresectable locally advanced or metastatic TNBC who received at least 2 prior treatments, at least 1 in the metastatic setting, is provided herein.
Trilaciclib plus sacituzumab govitecan-hziy will be administered intravenously (IV) in 21-day cycles as follows: • Trilaciclib 240 mg/m^2 administered as a 30-minute IV infusion completed within 4 hours prior to the start of sacituzumab govitecan-hziy on Day 1 and Day 8 of each 21-day treatment cycle. • Sacituzumab govitecan-hziy 10 mg/kg administered IV on Day 1 and Day 8 of each 21-day treatment cycle.
The first infusion of sacituzumab govitecan-hziy is administered over 3 hours and the patient is observed during the infusion and for at least 30 minutes following the initial dose for signs or symptoms of infusion-related reactions. Subsequent infusions of sacituzumab govitecan-hziy may be administered over 1 to 2 hours if prior infusions were tolerated and patients should be observed during the infusion and for at least 30 minutes after infusion. […]

In series [4] the test system is patients with unresectable locally advanced or metastatic triple-negative breast cancer (mTNBC). To be noted: cited from earlier work.
Series [5] relates to patients with metastatic TNBC. To be noted: N=108; cited from earlier work.
Series [6] has as its system patients with locally advanced or mUC after platinum-containing chemotherapy and PD-1 or PD-L1 inhibitor. To be noted: cited from earlier work.
Series [7] has as its system patients treated with sacituzumab govitecan-hziy. Conditions: cited from earlier work.
Series [8] concerns patients with locally recurrent unresectable or metastatic TNBC whose tumors express PD-L1 (CPS ≥10). To be noted: cited from earlier work.
Series [9] concerns patients with metastatic urothelial carcinoma (mUC) progressing after platinum-based chemotherapy and ICIs. To be noted: following progression; cited from earlier work.
Series [10] has as its system patients with mUC. To be noted: in vivo; cited from earlier work.
The mark [11] stands for this setting: mTNBC relapsed after at least two prior chemotherapies.
Where [12] appears, read: vs physician's choice of single-agent chemotherapy.
[13] abbreviates: trilaciclib prior to sacituzumab govitecan, 8 patients.
[14] abbreviates: trilaciclib prior to sacituzumab govitecan, RECIST v1.1, 8 patients.

For the compound “atezolizumab: a programmed death-ligand 1 (PD-L1) blocking antibody (immune checkpoint inhibitor)”, the “survival (lived for an average of)” value in series [1] (PD-L1 positive subset, atezolizumab or placebo plus nab-paclitaxel) was 25 months. In addition, the “median progression-free survival (PFS)” value in [1] (PD-L1 positive tumors, atezolizumab plus nab-paclitaxel vs placebo plus nab-paclitaxel) is listed as 7.4 months. In addition, in [1] (PD-L1 positive, atezolizumab plus nab-paclitaxel vs placebo plus nab-paclitaxel), the “PFS hazard ratio [HR]” value was 0.60. In addition, the “PFS HR” value in [2] (frontline) is given as 0.82. Further, the “survival HR” value in series [2] is recorded as 1.11.
sacituzumab govitecan: in [3] (8 patients), the “Grade ≥3 TRAEs related to the named study drug” value was “Grade 3 alopecia and Grade 3 neutropenia; also recorded: Grade 4 neutrophil count decreased”; the “patients with AEs related to the named study drug” value came to 5 patients. Further, the “Severe (Grade 3/4) neutropenia, patients” value in [4] (ASCENT study, without trilaciclib) is given as 52%. Besides, in [4] (ASCENT study), the “G-CSF used as a rescue therapy, patients” value is recorded as 44%; the “adverse reaction leading to a dose reduction, patients” value was 22%; the “adverse reaction leading to treatment interruption, patients” value is listed as 45%. Also, in [4] (mTNBC patients, ASCENT study), the “permanently discontinued for adverse reactions, patients” value is listed as 5%. Besides, in [4] (setting [11]), the “median overall survival (OS)” value is reported as 11.8 months and the “median progression free survival (PFS)” value was 4.8 months. Also, in series [4] (setting [12]), the “OS hazard ratio (HR)” value is on record as 0.51 and the “PFS hazard ratio [HR]” value is given as 0.43. Also, in [5], the ORR is 33.3%, the “median duration of response (DOR)” value is 7.7 months, the “patients having a DOR of ≥6 months” value is 55.5% and the “patients having a DOR of ≥12 months” value was 16.7%. For the same compound, in series [6] (10 mg/kg intravenously, days 1 and 8 of a 21-day cycle, 112 patients, RECIST 1.1), the “objective (overall) response rate (ORR)” value is on record as 27.7%. In [6] (10 mg/kg intravenously, days 1 and 8 of a 21-day cycle), the “median duration of response (DOR)” value was 7.2 months and 7.1 months. In addition, in series [6] (112 patients), the complete responses is 5.4% and the partial responses is recorded as 22.3%. For the same compound, the “Diarrhea, patients” value in [7] (all grades, all patients treated) is 65%. Further, in series [7] (all grades), the “neutropenia, patients” value is given as 61%. In series [7] (all patients treated), the “Grade 3-4 diarrhea, patients” value was 12%. For the same compound, in series [7] (in vivo), the “Grade 3-4 neutropenia, patients” value was 47%; the “Neutropenic colitis, patients” value is given as 0.5%; the “febrile neutropenia, patients” value is on record as 7%; the “intestinal perforation following diarrhea, number of patients” value is given as “One”.
In the case of “pembrolizumab: PD-1 inhibitor given in combination with chemotherapy for PD-L1 expressing TNBC”, the “median PFS” value in series [8] (pembrolizumab plus chemotherapy arm) is listed as 9.7 months. The “PFS HR” value in series [8] (pembrolizumab plus chemotherapy vs placebo arm) was 0.65.
`CC[C@]12C=CCN3CC[C@@]4(c5cc([C@@]6(C(=O)OC)C[C@@H]7C[C@@H](C(C)(F)F)CN(Cc8c6[nH]c6ccccc86)C7)c(OC)cc5N(C)[C@H]4[C@@](O)(C(=O)OC)[C@@H]1OC(C)=O)[C@@H]32` [vinflunine]: in [9], the “median overall survival (OS)” value was 7-8 months and the response rates entry is “approximately 10%”.
For `CN1CCN(c2ccc(Nc3ncc4cc5n(c4n3)C3(CCCCC3)CNC5=O)nc2)CC1` [trilaciclib, 2′-((5-(4-methylpiperazin-1-yl)pyridin-2-yl)amino)-7′,8′-dihydro-6′H-spiro(cyclohexane-1,9′-pyrazino(1′,2′:1,5)pyrrolo(2,3-d)pyrimidin)-6′-one], in [3] (8 patients), the “Grade ≥3 TRAEs related to the named study drug” value is on record as “Grade 4 neutrophil count decreased” and the “patients with AEs related to the named study drug” value was found to be 2 patients. In [3] (initial studies, compared with ASCENT study), the “effect of inclusion of trilaciclib on side effects associated with sacituzumab govitecan” value is “drastically reduces the side effects”. Further, in [3] (trilaciclib 240 mg/m^2 IV within 4 hours prior to sacituzumab govitecan-hziy 10 mg/kg, days 1 and 8 of 21-day cycles, 8 patients), the “Severe (Grade 3/4) neutropenia, number of patients” value is given as 1 patient. Besides, in series [3] (trilaciclib administered prior to sacituzumab govitecan, preliminary data), the tolerability entry is “well tolerated”. Also, the “Severe (Grade 3/4) neutropenia, percentage of patients” value in series [3] (trilaciclib prior to sacituzumab govitecan, days 1 and 8 of 21-day cycles, 8 patients) is 12.5%. Besides, in series [3] (setting [13]), the “Grade 3/4 anemia, patients” value is given as “No patients”; the “Grade 3/4 thrombocytopenia, patients” value is on record as “No patients”; the “Granulocyte colony-stimulating factors administered, number of patients” value was 2 patients; the “Granulocyte colony-stimulating factors administered, percentage of patients” value stood at 25%. Besides, in [3] (setting [13]), the “febrile neutropenia, patients” value is recorded as “none”; the “patients with Grade ≥3 TRAEs” value is listed as “Two”; the “patients with ≥1 treatment-related adverse event (TRAE)” value turned out to be 5 patients; the “required erythropoiesis-stimulating agents, patients” value was “No patients”. In addition, in series [3] (setting [13]), the “required intravenous antibiotics, number of patients” value stood at 1 patient; the “required red blood cell/platelet transfusions, patients” value is “No patients”; the “serious adverse events reported to date” value is on record as “no serious AEs; also recorded: no serious adverse events”; the “serious infection, patients” value is listed as “none”. In addition, the “withdrawn due to an adverse event, patients” value in series [3] (setting [13]) is given as “No patients”. Moreover, the “treatment-related adverse event (TRAE) of diarrhea, number” value in [3] (trilaciclib prior to sacituzumab govitecan, 8 patients, trilaciclib- and sacituzumab govitecan-related) was found to be 1. In series [3] (setting [14]), the “partial response, number of patients” value was “one” and the “stable disease, number of patients” value is recorded as “three”.
`COc1cc(OC)cc(N(CCNC(C)C)c2ccc3ncc(-c4cnn(C)c4)nc3c2)c1` [erdafitinib]: the “objective response rates (ORRs)” value in series [10] is “approximately 40%”.
